Source: US11117855B2, “Crystalline form of triethylenetetramine tetrahydrochloride and its pharmaceutical use” (Orphalan S.A., priority 2018, dated 2021)
Several values for one entry are separate records, joined by “and”; a condition that tells them apart may be missing. Identical values can stand only once. Like-named read-outs stand apart in the source and are kept apart here.

Tests used:
[1] = Heckel test (compaction simulator, yield pressure, strain rate sensitivity); details: for Compact observations / Ejection Force / Peak Force of Upper punch / Yield Pressure: individual runs; for Yield pressure Slow (0.1 mm/s) / Yield pressure fast (300 mm/s): summary mean of runs; for Strain rate sensitivity: yield pressure at 300 mm/s compared to 0.1 mm/s
[2] = 25° C.; for DVS weight gain at high relative humidity: 90% RH and above; for DVS weight above reference weight after sorption/desorption cycle: end of second desorption stage (0-95% RH-0%)
Method: Dynamic Vapour Sorption (DVS) Analysis DVS analyses are performed using an SMS DVS Intrinsic analyser (serial number PF 140088) in open aluminium pans at 25° C. with a nitrogen purge gas at 100 ml/min. The stability criterion was a weight change lower than 0.002% on a 5 minute time frame (with a minimum of 10 min and a maximum of 100 min).

[3] = helium pycnometry; for True Density: individual runs; for True Density MEAN: mean of runs
Method: Determination of True Density by Helium Pychnometry.
Equipment used: Micromeritics AccuPyc II 1340
Run fill pressure 19.5 psig
Equilibration rate 0.02 psig
Percentage full scale 0.05%
Testing was performed in duplicate.

[4] = Method: Onset, Peak Temperatures and Enthalpies Thermogravimetric Analysis (TGA) Thermogravimetric analyses were performed using a Pyris 1 TGA analyser (serial number 537N7052501) in sealed aluminium pans, punctured before analysis, under nitrogen flush at 20 mL/min.
[5] = six months at 40° C. and 75% humidity
Method: TETA.4HC obtained in accordance with Reference Example 3 was compressed to form a tablet. The tablet was aged for six months at 40° C. and 75% humidity.

[6] = fast speed 300 mm/s, listed as Ref Example 3
[7] = slow speed 0.1 mm/s, listed as Ref Example 3

Structure (SMILES): Cl.Cl.Cl.Cl.NCCNCCNCCN [Example 2, triethylenetetramine tetrachloride]
- Compact strength ([1]; fast speed 300 mm/s): 9.83 Kiloponds and 11.58 Kiloponds and 8.88 Kiloponds
- Compact observations ([1]; fast speed 300 mm/s): Good shiny
- Ejection Force ([1]; fast speed 300 mm/s): 0.441 kN and 0.456 kN and 0.417 kN
- Peak Force of Upper punch ([1]; fast speed 300 mm/s): 14.566 kN and 14.542 kN and 14.717 kN
- Yield Pressure ([1]; fast speed 300 mm/s): 129.865 Mpa and 129.108 Mpa and 129.861 Mpa
- Compact strength ([1]; slow speed 0.1 mm/s): 12.07 Kiloponds and 7.52 Kiloponds and 9.64 Kiloponds and 9.19 Kiloponds
- Compact observations ([1]; slow speed 0.1 mm/s): Good shiny
- Ejection Force ([1]; slow speed 0.1 mm/s): 0.044 kN and 0.053 kN and 0.080 kN and 0.060 kN
- Peak Force of Upper punch ([1]; slow speed 0.1 mm/s): 20.211 kN and 24.088 kN and 24.175 kN and 23.906 kN
- Yield Pressure ([1]; slow speed 0.1 mm/s): 106.465 Mpa and 117.516 Mpa and 118.116 Mpa and 115.227 Mpa
- Yield pressure Slow (0.1 mm/s) [1]: 114.33 Mpa (±5.39)
- Yield pressure fast (300 mm/s) [1]: 129.61 Mpa (±0.44)
- Strain rate sensitivity [1]: 13.4%
- DVS weight gain at high relative humidity [2]: ≥ 55.8%
- DVS weight gain at high relative humidity ([2]; listed as Form B): 50-59%
- DVS weight above reference weight after sorption/desorption cycle [2]: almost reaches its reference weight
- True Density [3]: 1.3693 g/mL and 1.3973 g/mL and 1.3678 g/mL
- True Density MEAN [3]: 1.3686 g/mL
- TGA weight loss (total) ([4]; 25-300° C., 10° C./min): 10.24%
- TGA weight loss starting temperature ([4]; 25-300° C., 10° C./min, nitrogen): 225 °C
- TGA weight loss ([4]; between 225.0-289.5° C.): 2.64%
- TGA weight loss ([4]; between 289.5-299.0° C.): 7.60%

Structure (SMILES): Cl.Cl.Cl.Cl.NCCNCCNCCN [Reference Example 3, triethylenetetramine tetrachloride, reference compound]
- Compact strength ([1]; fast speed 300 mm/s): 4-6 Kiloponds
- Compact observations [1, 6]: Good but blistering
- Ejection Force [1, 6]: 0.421 kN and 0.327 kN and 0.381 kN
- Peak Force of Upper punch [1, 6]: 14.644 kN and 14.752 kN and 14.617 kN
- Yield Pressure [1, 6]: 127.197 Mpa and 125.309 Mpa and 129.748 Mpa
- Compact strength [1, 6]: 6.59 Kiloponds and 4.27 Kiloponds and 4.75 Kiloponds
- Compact strength ([1]; slow speed 0.1 mm/s): 6-11 Kiloponds
- Compact observations [1, 7]: Good
- Ejection Force [1, 7]: 0.039 kN and −0.007 kN and −0.020 kN
- Peak Force of Upper punch [1, 7]: 20.830 kN and 18.543 kN and 19.570 kN
- Yield Pressure [1, 7]: 101.529 Mpa and 95.501 Mpa and 97.474 Mpa
- Compact strength [1, 7]: 6.41 Kiloponds and 7.45 Kiloponds and 11.17 Kiloponds
- Yield pressure Slow (0.1 mm/s) ([1]; listed as Ref Example 3): 98.17 Mpa
- Yield pressure fast (300 mm/s) ([1]; listed as Ref Example 3): 127.42 Mpa
- Strain rate sensitivity ([1]; listed as Ref Example 3): 29.8%
- DVS weight gain at high relative humidity ([2]; listed as Ref Example 3): ≥ 60.8%
- DVS weight above reference weight after sorption/desorption cycle ([2]; listed as Form A): 14-15%
- DVS weight above reference weight after sorption/desorption cycle ([2]; listed as Ref Example 3): 14.4%
- DVS weight above reference weight, minimum value reached ([2]; second desorption stage): 7.9%
- Tablet appearance after aging [5]: discoloured patches
- True Density ([3]; listed as Ref Example 3): 1.3523 g/mL and 1.3431 g/mL
- True Density MEAN ([3]; listed as Ref Example 3): 1.3477 g/mL
